# From PubChem BioAssay AID192 (DTP/NCI, 2004)
# Several values for one entry are separate records, joined by “and”; a condition that tells them apart may be missing. Equal values may be shown once. Inconclusive results and toxic doses are left out.
# Tested on: BDF1 mice, B16 melanoma ip, median survival T/C
# Experiment: NCI In Vivo Anticancer Drug Screen. Data for tumor model B16 Melanoma (intraperitoneal) in B6D2F1 (BDF1) mice
# Conditions: endpoint: median survival time, higher = longer survival
# Outline: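 Vehicle-treated animals serve as the reference (C); treated animals (T) are scored for survival or tumor size after tumor transplantation.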
# [1] = dose: 12.5 mg/kg/injection, schedule: Q01DX009 (ip), vehicle: saline
# [2] = dose: 25.0 mg/kg/injection, schedule: Q01DX009 (ip), vehicle: saline
# [3] = dose: 50.0 mg/kg/injection, schedule: Q01DX009 (ip), vehicle: saline
# [4] = dose: 100.0 mg/kg/injection, schedule: Q01DX009 (ip), vehicle: saline with Tween-80
# [5] = dose: 200.0 mg/kg/injection, schedule: Q01DX009 (ip), vehicle: saline with Tween-80
# [6] = dose: 400.0 mg/kg/injection, schedule: Q01DX009 (ip), vehicle: saline with Tween-80
# [7] = dose: 25.0 mg/kg/injection, schedule: Q01DX009 (ip), vehicle: saline with Tween-80
# [8] = dose: 50.0 mg/kg/injection, schedule: Q01DX009 (ip), vehicle: saline with Tween-80
# [9] = dose: 100.0 mg/kg/injection, schedule: Q01DX009 (ip), vehicle: Klucel (hydroxypropylcellulose) (HPC)
# [10] = dose: 200.0 mg/kg/injection, schedule: Q01DX009 (ip), vehicle: Klucel (hydroxypropylcellulose) (HPC)
# [11] = dose: 6.25 mg/kg/injection, schedule: Q01DX009 (ip), vehicle: saline with Tween-80
# [12] = dose: 12.5 mg/kg/injection, schedule: Q01DX009 (ip), vehicle: saline with Tween-80
# [13] = dose: 400.0 mg/kg/injection, schedule: Q01DX009 (ip), vehicle: Klucel (hydroxypropylcellulose) (HPC)
# [14] = dose: 50.0 mg/kg/injection, schedule: Q01DX009 (ip), vehicle: Klucel (hydroxypropylcellulose) (HPC)
# [15] = dose: 75.0 mg/kg/injection, schedule: Q01DX009 (ip), vehicle: Klucel (hydroxypropylcellulose) (HPC)
# [16] = dose: 25.0 mg/kg/injection, schedule: Q01DX009 (ip), vehicle: Klucel (hydroxypropylcellulose) (HPC)
# [17] = dose: 3.13 mg/kg/injection, schedule: Q01DX009 (ip), vehicle: saline with Tween-80
smiles,measurement,setting,value
Nc1[nH]c(=O)nc2nc[nH]c12,T/C,[1],108 % of control
same,T/C,[2],94 % of control
same,T/C,[3],89 % of control
CC(CP(=O)(c1ccccc1)c1ccccc1)C(=O)O (stereo not given),T/C,[4],95 % of control
same,T/C,[5],97 % of control
same,T/C,[6],90 % of control
CCCCCCCCCCCCCCCCCCNC(=O)Nc1c(C)cc(C)cc1C,T/C,"dose: 100.0 mg/kg/injection, schedule: Q01DX009 (ip), vehicle: gum acacia",88 % of control
Nc1ccc(N=Nc2ccccc2)c(N)c1,T/C,[7],106 % of control
same,T/C,[8],93 % of control and 101 % of control
same,T/C,[9],101 % of control
same,T/C,[4],95 % of control and 101 % of control
same,T/C,[10],99 % of control
same,T/C,[5],87 % of control and 90 % of control
CCCCCCCCCCCC1=C(O)C(=O)C=C(O)C1=O,T/C,[11],102 % of control
same,T/C,[12],96 % of control
same,T/C,[7],86 % of control
c1cc2n(n1)CCN2,T/C,[1],102 % of control
same,T/C,"dose: 18.75 mg/kg/injection, schedule: Q01DX009 (ip), vehicle: saline",116 % of control
same,T/C,[2],102 % of control
same,T/C,"dose: 37.5 mg/kg/injection, schedule: Q01DX009 (ip), vehicle: saline",100 % of control
same,T/C,[3],106 % of control
same,T/C,"dose: 75.0 mg/kg/injection, schedule: Q01DX009 (ip), vehicle: saline",93 % of control
same,T/C,"dose: 150.0 mg/kg/injection, schedule: Q01DX009 (ip), vehicle: saline",106 % of control
same,T/C,"dose: 200.0 mg/kg/injection, schedule: Q04DX003 (ip), vehicle: saline with Tween-80",108 % of control
same,T/C,"dose: 400.0 mg/kg/injection, schedule: Q04DX003 (ip), vehicle: saline with Tween-80",108 % of control
COC(=O)C(CCCCN=Cc1ccccc1O)N=Cc1ccccc1O.[Ni] (stereo not given),T/C,[11],100 % of control
same,T/C,[12],90 % of control
same,T/C,"dose: 12.5 mg/kg/injection, schedule: Q04DX003 (ip), vehicle: saline with Tween-80",95 % of control
same,T/C,[7],95 % of control
same,T/C,"dose: 25.0 mg/kg/injection, schedule: Q04DX003 (ip), vehicle: saline with Tween-80",93 % of control
C=C1CCN(c2ccc(OCC)cc2)C1=O,T/C,"dose: 4.0 mg/kg/injection, schedule: Q01DX009 (ip), vehicle: saline + alcohol",93 % of control
same,T/C,"dose: 8.0 mg/kg/injection, schedule: Q01DX009 (ip), vehicle: saline + alcohol",95 % of control
same,T/C,"dose: 16.0 mg/kg/injection, schedule: Q01DX009 (ip), vehicle: saline + alcohol",107 % of control
same,T/C,"dose: 32.0 mg/kg/injection, schedule: Q01DX009 (ip), vehicle: saline + alcohol",115 % of control
same,T/C,"dose: 64.0 mg/kg/injection, schedule: Q01DX009 (ip), vehicle: saline + alcohol",93 % of control
O,T/C,"dose: 6.25 mg/kg/injection, schedule: Q01DX009 (ip), vehicle: saline",96 % of control
same,T/C,[1],112 % of control
same,T/C,"dose: 18.75 mg/kg/injection, schedule: Q04DX003 (ip), vehicle: saline",95 % of control
same,T/C,[2],93 % of control
same,T/C,"dose: 37.5 mg/kg/injection, schedule: Q04DX003 (ip), vehicle: saline",97 % of control
same,T/C,"dose: 100.0 mg/kg/injection, schedule: Q02DX009 (ip), vehicle: saline",97 % of control
same,T/C,"dose: 200.0 mg/kg/injection, schedule: Q02DX009 (ip), vehicle: saline",100 % of control
same,T/C,"dose: 400.0 mg/kg/injection, schedule: Q02DX009 (ip), vehicle: saline",96 % of control
same,T/C,"dose: 600.0 mg/kg/injection, schedule: Q02DX009 (ip), vehicle: saline",103 % of control
CCOc1ccc(NC(=O)c2cccc(C(=O)Nc3ccc(OCC)cc3)c2)cc1,T/C,[9],103 % of control
same,T/C,[10],93 % of control
same,T/C,[13],86 % of control
COC1CCCCC1SCSC1CCCCC1OC (stereo not given),T/C,[4],105 % of control
same,T/C,[5],102 % of control
same,T/C,[6],105 % of control
O=C(Cc1ccccc1)NC/C=N/O,T/C,[8],107 % of control
same,T/C,[4],102 % of control
same,T/C,[5],93 % of control
same,T/C,[6],100 % of control
Cc1ccc(NC(=O)Nc2ccccc2C)c(C)c1,T/C,[14],115 % of control
same,T/C,[9],115 % of control
same,T/C,[10],118 % of control
O=C(O)O,T/C,"dose: 100.0 mg/kg/injection, schedule: Q01DX009 (ip), vehicle: saline",102 % of control
same,T/C,"dose: 200.0 mg/kg/injection, schedule: Q01DX009 (ip), vehicle: saline",97 % of control
same,T/C,"dose: 400.0 mg/kg/injection, schedule: Q01DX009 (ip), vehicle: saline",94 % of control
COC(=O)c1ccc(C(=O)OC)cc1,T/C,"dose: 0.05 mg/kg/injection, schedule: Q04DX003 (ip), vehicle: water",103 % of control
same,T/C,"dose: 0.1 mg/kg/injection, schedule: Q04DX003 (ip), vehicle: water",96 % of control
same,T/C,"dose: 0.2 mg/kg/injection, schedule: Q04DX003 (ip), vehicle: water",106 % of control
same,T/C,"dose: 0.4 mg/kg/injection, schedule: Q04DX003 (ip), vehicle: water",113 % of control
Cc1ccc(Cl)cc1NC(=O)c1ccccc1C(=O)O,T/C,[9],93 % of control
same,T/C,[10],93 % of control
same,T/C,[13],103 % of control
OC(c1ccccc1)(c1c2ccccc2cc2ccccc12)C1CCC1 (stereo not given),T/C,[15],100 % of control
same,T/C,"dose: 150.0 mg/kg/injection, schedule: Q01DX009 (ip), vehicle: Klucel (hydroxypropylcellulose) (HPC)",102 % of control
same,T/C,"dose: 300.0 mg/kg/injection, schedule: Q01DX009 (ip), vehicle: Klucel (hydroxypropylcellulose) (HPC)",91 % of control
CCCCNC(=O)Nc1ccc(CC)cc1,T/C,[9],100 % of control
same,T/C,[10],91 % of control
O=C1C(N2CCCCC2)=C(N2CC2)C(=O)C(N2CCCCC2)=C1N1CC1,T/C,"dose: 2.5 mg/kg/injection, schedule: Q01DX009 (ip), vehicle: saline",94 % of control and 97 % of control
same,T/C,"dose: 5.0 mg/kg/injection, schedule: Q01DX009 (ip), vehicle: saline",121 % of control
C/C(=C\c1ccccc1Cl)[N+](=O)[O-],T/C,"dose: 37.5 mg/kg/injection, schedule: Q01DX009 (ip), vehicle: Klucel (hydroxypropylcellulose) (HPC)",96 % of control
same,T/C,[15],96 % of control
CC(Br)C(=O)NCC(=O)O (stereo not given),T/C,[1],101 % of control
same,T/C,[2],90 % of control
same,T/C,[8],95 % of control
same,T/C,[3],101 % of control
O=C(O)/C(Cl)=C(/Cl)C(Cl)=C(Cl)Cl,T/C,[7],95 % of control
O=[N+]([O-])c1cc(F)ccc1O,T/C,[7],100 % of control
S=C=NCCCCCCCCCCCCN=C=S,T/C,"dose: 3.12 mg/kg/injection, schedule: Q01DX009 (ip), vehicle: saline with Tween-80",99 % of control
same,T/C,[11],86 % of control
same,T/C,[12],98 % of control
OC(CCN1CCCCC1)(c1ccccc1)C1CCCC1 (stereo not given),T/C,"dose: 12.5 mg/kg/injection, schedule: Q01DX009 (ip), vehicle: Klucel (hydroxypropylcellulose) (HPC)",100 % of control
same,T/C,[16],94 % of control
same,T/C,[14],100 % of control
Cc1ccc(Cl)cc1NC(=O)Nc1ccccc1Cl,T/C,"dose: 0.78 mg/kg/injection, schedule: Q01DX009 (ip), vehicle: saline with Tween-80",88 % of control
same,T/C,"dose: 1.56 mg/kg/injection, schedule: Q01DX009 (ip), vehicle: saline with Tween-80",90 % of control
same,T/C,[17],93 % of control
same,T/C,[11],90 % of control
same,T/C,[16],89 % of control
C/C=C/CNc1ccccc1,T/C,[8],101 % of control
same,T/C,[4],94 % of control
COC(=O)C1=C(C)NC(=O)NC1c1ccc(N(CCCl)CCCl)c(OC)c1 (stereo not given),T/C,"dose: 1.56 mg/kg/injection, schedule: Q01DX009 (ip), vehicle: Klucel (hydroxypropylcellulose) (HPC)",154 % of control
same,T/C,"dose: 3.12 mg/kg/injection, schedule: Q01DX009 (ip), vehicle: Klucel (hydroxypropylcellulose) (HPC)",178 % of control
same,T/C,[17],176 % of control
same,T/C,[11],189 % of control
O=Cc1ccc(C(Cl)(Cl)Cl)cc1,T/C,[12],91 % of control
same,T/C,[7],103 % of control
same,T/C,[8],101 % of control and 104 % of control
same,T/C,[4],106 % of control and 107 % of control
same,T/C,[5],103 % of control and 110 % of control
CCC(C(=O)O)C(=O)O.[NH2-].[NH2-].[Pt+2],T/C,"dose: 8.0 mg/kg/injection, schedule: Q01DX009 (ip), vehicle: water",115 % of control
same,T/C,"dose: 12.5 mg/kg/injection, schedule: Q04DX003 (ip), vehicle: saline",108 % of control and 113 % of control
same,T/C,"dose: 16.0 mg/kg/injection, schedule: Q01DX009 (ip), vehicle: water",170 % of control
same,T/C,"dose: 25.0 mg/kg/injection, schedule: Q04DX003 (ip), vehicle: saline",170 % of control
same,T/C,"dose: 50.0 mg/kg/injection, schedule: Q04DX003 (ip), vehicle: saline",177 % of control and 219 % of control
same,T/C,"dose: 100.0 mg/kg/injection, schedule: Q04DX003 (ip), vehicle: saline",112 % of control and 247 % of control
